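1) Cells in 96-well plates. 2) Compound, 48 h, 5 concentrations. 3) Linear interpolation between surrounding doses. 4) Unreached endpoint = highest concentration. Abbreviation: GI50, concentration required for 50% inhibition of growth.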 Calls of active or inactive are those of the source. Cut-off read from the data, not from the text of the source: active = GI50 up to about 1.1 µM and inactive = higher.
Experiments:
Assay in all cases: DTP human tumour cell line panel, 48 h
CAKI-1 = test system: CAKI-1
ACHN = test system: ACHN
OVCAR-4 = test system: OVCAR-4
OVCAR-3 = test system: OVCAR-3
SF-268 = test system: SF-268
SNB-19 = test system: SNB-19
NCI-H23 = test system: NCI-H23
UACC-257 = test system: UACC-257
SF-539 = test system: SF-539
SK-MEL-5 = test system: SK-MEL-5
NCI-H522 = test system: NCI-H522
HOP-62 = test system: HOP-62
HL-60 = test system: HL-60
UO-31 = test system: UO-31
LOX IMVI = test system: LOX IMVI
NCI-H226 = test system: NCI-H226
HCT-116 = test system: HCT-116
SNB-75 = test system: SNB-75
COLO 205 = test system: COLO 205
SN12C = test system: SN12C
SNB-78 = test system: SNB-78
OVCAR-5 = test system: OVCAR-5
DMS-273 = test system: DMS-273
A549 = test system: A549
M19-MEL = test system: M19-MEL
OVCAR-8 = test system: OVCAR-8
NCI-H460 = test system: NCI-H460
SK-MEL-2 = test system: SK-MEL-2
RPMI-8226 = test system: RPMI-8226
M14 = test system: M14
HT-29 = test system: HT-29
Malme-3M = test system: Malme-3M
UACC-62 = test system: UACC-62
SK-MEL-28 = test system: SK-MEL-28
K562 = test system: K562
U-251 = test system: U-251
LXFL 529 = test system: LXFL 529
CCRF-CEM = test system: CCRF-CEM
HCC 2998 = test system: HCC 2998
A498 = test system: A498
TK-10 = test system: TK-10
HOP-92 = test system: HOP-92
SK-OV-3 = test system: SK-OV-3
MOLT-4 = test system: MOLT-4
DMS-114 = test system: DMS-114
KM12 = test system: KM12
IGROV-1 = test system: IGROV-1
SR = test system: SR
786-0 = test system: 786-0
RXF 393 = test system: RXF 393
SF-295 = test system: SF-295
SW-620 = test system: SW-620
KM-20L2 = test system: KM-20L2
DLD-1 = test system: DLD-1
EKVX = test system: EKVX
HCT-15 = test system: HCT-15
HOP-18 = test system: HOP-18
XF498 = test system: XF498
NCI/ADR-RES = test system: NCI/ADR-RES
BT-549 = test system: BT-549
MCF7 = test system: MCF7
T47D = test system: T47D
MDA-N = test system: MDA-N
MDA-MB-435 = test system: MDA-MB-435
DU-145 = test system: DU-145
PC-3 = test system: PC-3
Hs-578T = test system: Hs-578T
MDA-MB-231 = test system: MDA-MB-231

## NC(=O)c1ncn(C2OC(CO)C(O)C2O)c1NC(=S)NC(=O)c1ccccc1 (centres undefined)
CAKI-1
  GI50: > 100 µM (inactive)
ACHN
  GI50: > 100 µM (inactive)
OVCAR-4
  GI50: > 100 µM (inactive)
OVCAR-3
  GI50: > 100 µM (inactive)
SF-268
  GI50: > 100 µM (inactive)
SNB-19
  GI50: > 100 µM (inactive)
NCI-H23
  GI50: > 100 µM (inactive)
UACC-257
  GI50: > 100 µM (inactive)
SF-539
  GI50: > 100 µM (inactive)
SK-MEL-5
  GI50: > 100 µM (inactive)
NCI-H522
  GI50: > 100 µM (inactive)
HOP-62
  GI50: > 100 µM (inactive)
HL-60
  GI50: > 100 µM (inactive)
UO-31
  GI50: > 100 µM (inactive)
LOX IMVI
  GI50: > 100 µM (inactive)
NCI-H226
  GI50: > 100 µM (inactive)
HCT-116
  GI50: > 100 µM (inactive)
SNB-75
  GI50: > 100 µM (inactive)
COLO 205
  GI50: > 100 µM (inactive)
SN12C
  GI50: > 100 µM (inactive)
SNB-78
  GI50: > 100 µM (inactive)
OVCAR-5
  GI50: > 100 µM (inactive)
DMS-273
  GI50: > 100 µM (inactive)
A549
  GI50: > 100 µM (inactive)
M19-MEL
  GI50: > 100 µM (inactive)
OVCAR-8
  GI50: > 100 µM (inactive)
NCI-H460
  GI50: > 100 µM (inactive)
SK-MEL-2
  GI50: > 100 µM (inactive)
RPMI-8226
  GI50: > 100 µM (inactive)
M14
  GI50: > 100 µM (inactive)
HT-29
  GI50: > 100 µM (inactive)
Malme-3M
  GI50: > 100 µM (inactive)
UACC-62
  GI50: > 100 µM (inactive)
SK-MEL-28
  GI50: > 100 µM (inactive)
K562
  GI50: > 100 µM (inactive)
U-251
  GI50: > 100 µM (inactive)
LXFL 529
  GI50: > 100 µM (inactive)
CCRF-CEM
  GI50: > 100 µM (inactive)
HCC 2998
  GI50: > 100 µM (inactive)
A498
  GI50: > 100 µM (inactive)
TK-10
  GI50: > 100 µM (inactive)
HOP-92
  GI50: > 100 µM (inactive)
SK-OV-3
  GI50: > 100 µM (inactive)
MOLT-4
  GI50: > 100 µM (inactive)
DMS-114
  GI50: > 100 µM (inactive)
KM12
  GI50: > 100 µM (inactive)
IGROV-1
  GI50: > 100 µM (inactive)
SR
  GI50: > 100 µM (inactive)
786-0
  GI50: > 100 µM (inactive)
RXF 393
  GI50: > 100 µM (inactive)
SF-295
  GI50: > 100 µM (inactive)
SW-620
  GI50: > 100 µM (inactive)
KM-20L2
  GI50: > 100 µM (inactive)
DLD-1
  GI50: > 100 µM (inactive)
EKVX
  GI50: > 100 µM (inactive)

## N/N=C(\CC1OC(=O)c2ccccc21)c1ccco1 (centres undefined)
CAKI-1
  GI50: > 100 µM (inactive)
ACHN
  GI50: > 100 µM (inactive)
OVCAR-4
  GI50: > 100 µM (inactive)
OVCAR-3
  GI50: > 100 µM (inactive)
SF-268
  GI50: > 100 µM (inactive)
SNB-19
  GI50: > 100 µM (inactive)
NCI-H23
  GI50: > 100 µM (inactive)
UACC-257
  GI50: > 100 µM (inactive)
SF-539
  GI50: > 100 µM (inactive)
SK-MEL-5
  GI50: > 100 µM (inactive)
NCI-H522
  GI50: > 100 µM (inactive)
HL-60
  GI50: > 100 µM (inactive)
UO-31
  GI50: > 100 µM (inactive)
LOX IMVI
  GI50: 80 µM (inactive)
NCI-H226
  GI50: > 100 µM (inactive)
HCT-116
  GI50: > 100 µM (inactive)
SNB-75
  GI50: > 100 µM (inactive)
COLO 205
  GI50: > 100 µM (inactive)
OVCAR-5
  GI50: > 100 µM (inactive)
DMS-273
  GI50: > 100 µM (inactive)
A549
  GI50: > 100 µM (inactive)
M19-MEL
  GI50: > 100 µM (inactive)
NCI-H460
  GI50: > 100 µM (inactive)
SK-MEL-2
  GI50: > 100 µM (inactive)
M14
  GI50: > 100 µM (inactive)
HT-29
  GI50: > 100 µM (inactive)
HCT-15
  GI50: > 100 µM
Malme-3M
  GI50: > 100 µM (inactive)
UACC-62
  GI50: > 100 µM (inactive)
SK-MEL-28
  GI50: > 100 µM (inactive)
K562
  GI50: 50 µM (inactive)
LXFL 529
  GI50: > 100 µM (inactive)
CCRF-CEM
  GI50: 59.2 µM (inactive)
HCC 2998
  GI50: > 100 µM (inactive)
A498
  GI50: > 100 µM (inactive)
TK-10
  GI50: > 100 µM (inactive)
HOP-92
  GI50: > 100 µM (inactive)
SK-OV-3
  GI50: > 100 µM (inactive)
MOLT-4
  GI50: > 100 µM (inactive)
DMS-114
  GI50: > 100 µM (inactive)
KM12
  GI50: > 100 µM (inactive)
IGROV-1
  GI50: > 100 µM (inactive)
786-0
  GI50: < 0.01 µM (active)
HOP-18
  GI50: < 0.01 µM (active)
RXF 393
  GI50: > 100 µM (inactive)
SF-295
  GI50: > 100 µM (inactive)
SW-620
  GI50: > 100 µM (inactive)
KM-20L2
  GI50: > 100 µM (inactive)
DLD-1
  GI50: > 100 µM (inactive)
EKVX
  GI50: > 100 µM (inactive)

## Cc1cc(-c2ccc(/N=N/c3ccc4c(S(=O)(=O)O)cc(S(=O)(=O)O)c(N)c4c3O)c(C)c2)ccc1/N=N/c1ccc2c(S(=O)(=O)O)cc(S(=O)(=O)O)c(N)c2c1O
OVCAR-4
  GI50: > 63.4 µM (inactive)
SNB-19
  GI50: > 100 µM (inactive)
SK-MEL-5
  GI50: > 100 µM (inactive)
HOP-62
  GI50: > 100 µM (inactive)
LOX IMVI
  GI50: > 100 µM (inactive)
HCT-116
  GI50: > 100 µM (inactive)
SNB-75
  GI50: > 100 µM (inactive)
COLO 205
  GI50: > 100 µM (inactive)
SNB-78
  GI50: > 100 µM (inactive)
RPMI-8226
  GI50: > 100 µM (inactive)
Malme-3M
  GI50: > 100 µM (inactive)
UACC-62
  GI50: > 100 µM (inactive)
CCRF-CEM
  GI50: > 100 µM (inactive)
HOP-92
  GI50: > 100 µM (inactive)
MOLT-4
  GI50: > 100 µM (inactive)
DMS-114
  GI50: > 100 µM (inactive)
KM12
  GI50: > 100 µM (inactive)
IGROV-1
  GI50: > 100 µM (inactive)
XF498
  GI50: > 100 µM (inactive)
DLD-1
  GI50: > 100 µM (inactive)

## CC[P+](C#Cc1ccccc1)(c1ccccc1)c1ccccc1
CAKI-1
  GI50: 9.66 µM (inactive)
ACHN
  GI50: 3.94 µM (inactive)
OVCAR-4
  GI50: 3.15 µM (inactive)
OVCAR-3
  GI50: 1.31 µM (inactive)
SF-268
  GI50: 3.03 µM (inactive)
SNB-19
  GI50: 5.92 µM (inactive)
NCI-H23
  GI50: 2.17 µM (inactive)
UACC-257
  GI50: 1.21 µM (inactive)
SF-539
  GI50: 1.79 µM (inactive)
NCI/ADR-RES
  GI50: 38.9 µM (inactive)
SK-MEL-5
  GI50: 1.22 µM (inactive)
NCI-H522
  GI50: 1.36 µM (inactive)
HOP-62
  GI50: 2.44 µM (inactive)
HL-60
  GI50: 0.324 µM (active)
UO-31
  GI50: 6.93 µM (inactive)
LOX IMVI
  GI50: 1.82 µM (inactive)
BT-549
  GI50: 1.31 µM (inactive)
NCI-H226
  GI50: 2.82 µM (inactive)
HCT-116
  GI50: 1.77 µM (inactive)
SNB-75
  GI50: 1.78 µM (inactive)
COLO 205
  GI50: 1.06 µM (active)
SN12C
  GI50: 1.75 µM (inactive)
MCF7
  GI50: 3.09 µM (inactive)
OVCAR-5
  GI50: 4.06 µM (inactive)
A549
  GI50: 3.08 µM (inactive)
OVCAR-8
  GI50: 1.76 µM (inactive)
T47D
  GI50: 2.18 µM (inactive)
NCI-H460
  GI50: 3 µM (inactive)
SK-MEL-2
  GI50: 1.98 µM (inactive)
MDA-N
  GI50: 1.56 µM (inactive)
MDA-MB-435
  GI50: 1.24 µM (inactive)
RPMI-8226
  GI50: 0.242 µM (active)
M14
  GI50: 1.66 µM (inactive)
HT-29
  GI50: 2.43 µM (inactive)
DU-145
  GI50: 3.46 µM (inactive)
PC-3
  GI50: 2.3 µM (inactive)
HCT-15
  GI50: 3.19 µM
Malme-3M
  GI50: 1.59 µM (inactive)
UACC-62
  GI50: 1.63 µM (inactive)
SK-MEL-28
  GI50: 1.95 µM (inactive)
K562
  GI50: 0.224 µM (active)
U-251
  GI50: 0.562 µM (active)
CCRF-CEM
  GI50: 0.358 µM (active)
HCC 2998
  GI50: 1.97 µM (inactive)
A498
  GI50: 8.17 µM (inactive)
TK-10
  GI50: 1.58 µM (inactive)
HOP-92
  GI50: 1.92 µM (inactive)
Hs-578T
  GI50: 2.86 µM (inactive)
SK-OV-3
  GI50: 2.93 µM (inactive)
MOLT-4
  GI50: 1.36 µM (inactive)
KM12
  GI50: 1.22 µM (inactive)
IGROV-1
  GI50: 3.1 µM (inactive)
SR
  GI50: 2.33 µM (inactive)
786-0
  GI50: 1.57 µM (inactive)
RXF 393
  GI50: 0.966 µM (active)
SF-295
  GI50: 7.03 µM (inactive)
SW-620
  GI50: 1.17 µM (inactive)
EKVX
  GI50: 2.26 µM (inactive)
MDA-MB-231
  GI50: 3.18 µM (inactive)

Source: ChEMBL document CHEMBL1201862, “PubChem BioAssay data set” (2004)
